Assay results: article PMC8692993, “PPARα and PPARγ activation is associated with pleural mesothelioma invasion but therapeutic inhibition is ineffective” (iScience, 2021)

How the values were obtained:
PPARγ [1] = target: T1, PPARγ (Homo sapiens, UniProt P37231); assay: LanthaScreen TR-FRET binding assay, PPARγ; settings: 2 h incubation, mean of 3 replicates ± SEM
T1 sequence (P37231 238-503 limits assumed): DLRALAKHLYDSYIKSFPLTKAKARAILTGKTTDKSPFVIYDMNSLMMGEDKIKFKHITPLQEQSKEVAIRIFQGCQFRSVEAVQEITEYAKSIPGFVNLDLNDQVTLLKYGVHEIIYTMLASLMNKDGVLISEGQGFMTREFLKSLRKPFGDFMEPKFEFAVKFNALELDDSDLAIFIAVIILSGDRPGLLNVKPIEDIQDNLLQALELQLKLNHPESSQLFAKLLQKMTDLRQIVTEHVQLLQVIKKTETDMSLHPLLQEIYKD
Description: The LanthaScreen™ TR-FRET binding assay was performed following the manufacturer's guidelines (PV4894, Invitrogen) as follows, 20 mM stock solution of the ligand or control in DMSO were serially diluted using 100% DMSO to produce a range of concentrations from 100 μM to 1 pM. The test compound solutions were mixed with the reaction buffer in a 1 (ligand) in 10 (reaction buffer) dilution for a final 2X ligand concentration. This was mixed with the reaction components (glutathione S-transferase (GST)-PPPARγLBD (0.5 nM)/, terbium (Tb)-labelled anti-GST antibody (5 nM) and Fluormone pan-PPAR green (5 nM for PPARγ; 20 nM for PPARα) at room temperature in a ratio of 8 μLl 2X ligand solution: 4 μLl of 4XFluormone: and 4 μLl 4X GST-PPPARγLBD/terbium (Tb)-labelled anti-GST antibody to produce a final reaction mixture volume of 16 μL. The concentration of DMSO in the final reaction mixture was 5%. The reaction mixture was kept at room temperature for 2 h prior to recording the TR-FRET emission spectra using a CLARIOstar Plus microplate reader (BMG Labtech). […] Results are expressed as the ratio of fluorescence intensity at 520 nm (Fluormone emission) and 490 nm (Tb emission). […] For each compound three serial dilutions were prepared and measured separately. The IC50 and SEM values were determined using a sigmoidal dose-response equation with varying slope using GraphPad Prism.

PPARγ [2] = target: T1, PPARγ; assay: HG5LN reporter cell assay, PPARγ-mediated transcription; format: cell-based; parameters: expressed in transfected cells; host or cells: HG5LN (HeLa-derived, GAL4RE-luciferase)
From the text: Nuclear receptors, including PPARα and γ, are ligand-inducible transcription factors that form heterodimers with retinoid X receptors and bind to specific DNA sites located in the enhancer/promoter region of target genes, releasing co-repressors and/or recruiting co-activators ([Wang, 2010]). We therefore assessed the functional consequences of the ligands on PPARα and γ-mediated transcriptional activation in reporter cell lines. These cell lines were generated as previously reported by a two-step transfection procedure ([Seimandi et al., 2005]). First, a stable cell line, HG5LN, expressing the reporter gene (GAL4RE-luciferase) was developed from the HeLa cell line. These cells were then transfected with a plasmid expressing the C-terminal ligand-binding domain of PPARα or γ fused to GAL4 DNA-binding domain. The parental HG5LN cells were used as a control to test non-specific modulation of luciferase expression by the small molecules investigated (Figure S4A). The HG5LN PPAR reporter cells therefore allow comparison of the functional activity at, and selectivity of different ligands for, PPARα and γ. […] As expected ([Abu Aboud et al., 2015]), GW6471 potently antagonized PPARα (Figure 4E and Table 1).
A transfected […] cell line HG5LN was used ([Balaguer et al., 2001]). These cells were cultured in Dubecco's modified Eagle's medium (DMEM-F12 Thermo Fisher Scientific) with phenol red and supplemented with 5% foetal calf serum, incubated at 37°C in a 5% CO2/95% air-humidified atmosphere. Luciferase assays were performed in DMEM-F12 (Thermo Fisher Scientific) without phenol red and supplemented with 5% dextran-coated charcoal-stripped FCS (test culture medium), puromycin (Thermo Fisher Scientific) 0.5 μg/mL and geneticin (Thermo Fisher Scientific) 1 mg/mL. Cells were seeded at a density of 5 x 10^4 cells/well and incubated for 8 h at 37°C in a 96-well plate white opaque tissue culture plates (Becton-Dickinson). Tested compounds were added in serial dilutions and incubated for 16 h at 37°C. After incubation, the medium containing the effectors was carefully removed and replaced by culture medium containing 3 x 10^−4 mol/L luciferin (Sigma Chemicals). After 5 min incubation at room temperature, the 96-well plate was then read with a Microbeta Wallac luminometer and the luminescence was measured in the living cells for 2 s. All experiments were performed in quadruplicate.

[3] = test system: JU77 human mesothelioma cell line; assay: Soft agar colony formation assay; format: cell-based; settings: JU77, GW6471 0.5-8 μM, p <0.05
Description: Cells were incubated with different concentrations of GW6471 (from 0.5 μM to 8 μM) for a soft agar colony formation assay ([Horibata et al., 2015]). Briefly, 3% 2-hydroxyethyl agarose (agarose, A4018; Sigma-Aldrich, Australia) was prepared as stock solution. The bottom layer was prepared by incubating 20% agarose gel in R10 complete medium, RPMI 1640 (Invitrogen) supplemented with 10% foetal calf serum (FCS; Life Technologies), 20 mM HEPES (Sigma-Aldrich), 0.05 mM 2-mercaptoethanol (pH 7.2; Merck, Kilsyth, Australia), 60 μg/mL penicillin (Life Technologies), 50 μg/mL gentamicin (David Bull Labs), for a final concentration of 0.6%, 2mL per well, at 4°C for 1 h to allow the mixture to solidify, then incubating at 37°C for at least 30 min before seeding the cells. The cell-containing layer (10% agarose gel in R10 complete medium for a final concentration of 0.3%, 1 mL per well) was prepared with a concentration of 1,000 cells/mL. 1 mL of cells was then transfer to each well. […]
Colony counting was performed by adding 1 mL of 0.005% crystal violet (C0775; Sigma-Aldrich, Australia) in PBS on top of each well and incubating at room temperature for 24 h. Pictures were taken and colonies counted with ImageJ (v1.52a).

Structure (SMILES): CCC(=O)NC[C@H](Cc1ccc(OCCc2nc(-c3ccccc3)oc2C)cc1)N/C(C)=C\C(=O)c1ccc(C(F)(F)F)cc1 [GW6471]
- IC50 (PPARγ [1]): 39.4 ± 18.2 nM
- Functionality, Type (PPARγ [2]): antagonist
- IC50 (PPARγ [2]; inhibition of agonism by 30 nM rosiglitazone, 16 h incubation, mean of 3 experiments ± SEM): 210 ± 64 nM
- Number of colonies formed [3]: significant reduction in the number of colonies formed
